In patent US20200347033A1, “MODULATORS OF THE INTEGRATED STRESS PATHWAY” (Calico Life Sciences LLC, priority 2017, published 2020):

What follows are molecules tested on HEK293T cells carrying the ATF4 luciferase reporter (assay: ATF4-Luc assay (in vitro model of vanishing white matter disease)). Details: HEK293T cells with ATF4 5'-UTR firefly luciferase reporter; 1 μg/mL tunicamycin; 7 hours; One Glo luminescence.
Assay type: cell-based, human
Description: In order to test exemplary compounds of the invention in a cellular context, a stable VWMD cell line was first constructed. The ATF4 reporter was prepared by fusing the human full-length ATF4 5′-UTR (NCBI Accession No. BC022088.2) in front of the firefly luciferase (FLuc) coding sequence lacking the initiator methionine as described in Sidrauski et al (eLife 2013). The construct was used to produce recombinant retroviruses using standard methods and the resulting viral supernatant was used to transduce HEK293T cells, which were then subsequently selected with puromycin to generate a stable cell line.
HEK293T cells carrying the ATF4 luciferase reporter were plated on polylysine coated 384-well plates (Greiner Bio-one) at 30,000 cells per well. Cells were treated the next day with 1 μg/mL tunicamycin and 200 nM of a compound of Formula (I) for 7 hours. Luminescence was measured using One Glo (Promega) as specified by the manufacturer. Cells were maintained in DMEM with L-glutamine supplemented with 10% heat-inactivated FBS (Gibco) and Antibiotic-Antimycotic solution (Gibco).
Table 2 below summarizes the EC50 data obtained using the ATF4-Luc assay for exemplary compounds of the invention.

Molecule	EC50 [nM]
2-(4-chloro-3-fluorophenoxy)-N-[3-(5-chloro-1-hydroxy-3-oxo-1,3-dihydro-2H-isoindol-2-yl)bicyclo[1.1.1]pentan-1-yl]acetamide and 2-(4-chloro-3-fluorophenoxy)-N-[3-(5-chloro-3-hydroxy-1-oxo-,3-dihydro-2H-isoindol-2-yl)bicyclo[1.1.1]pentan-1-yl]acetamide [Compound 153]	> 2000

Same assay, conditions: Homo sapiens, HEK-293T; HEK293T cells with ATF4 5'-UTR firefly luciferase reporter; 1 μg/mL tunicamycin; 7 hours; One Glo luminescence

Molecule	EC50 [nM]
O=C(COc1ccc(Cl)c(F)c1)NC12CC(N3CC[C@@H](Oc4ccc(Cl)cc4)C3=O)(C1)C2 (single isomer, unassigned) [Compound 102]	250 to 1000
O=C(COc1ccc(Cl)c(F)c1)NC12CC(N3CC[C@H](Oc4ccc(Cl)cc4)C3=O)(C1)C2 (single isomer, unassigned) [Compound 103]	50 to 250
O=C(COc1ccc(Cl)c(F)c1)NC12CC(N3C(=O)c4cc(Cl)ccc4[C@@H]3O)(C1)C2 (single isomer, unassigned) [Compound 148, 2-(4-chloro-3-fluorophenoxy)-N-{3-[(1)-5-chloro-1-hydroxy-3-oxo-1,3-dihydro-2H-isoindol-2-yl]bicyclo[1.1.1]pentan-1-yl}acetamide]	> 2000
O=C(COc1ccc(Cl)c(F)c1)NC12CC(N3C(=O)c4ccc(Cl)cc4[C@H]3O)(C1)C2 (single isomer, unassigned) [Compound 149]	250 to 1000
O=C(COc1ccc(Cl)c(F)c1)NC12CC(N3C(=O)c4ccc(Cl)cc4[C@@H]3O)(C1)C2 (single isomer, unassigned) [Compound 150]	1000 to 2000
O=C(COc1ccc(Cl)c(F)c1)NC12CC(N3C(=O)c4cc(Cl)ccc4[C@H]3O)(C1)C2 (single isomer, unassigned) [Compound 151]	> 2000
O=C(COc1ccc(Cl)c(F)c1)NC12CCC(N3CC[C@@H](c4ccc(Cl)cc4)C3=O)(CC1)C[C@@H]2O (single isomer, unassigned) [Compound 154]	250 to 1000
O=C(COc1ccc(Cl)c(F)c1)NC12CCC(N3CC[C@H](c4ccc(Cl)cc4)C3=O)(CC1)C[C@@H]2O (single isomer, unassigned) [Compound 155]	< 50
O=C(COc1ccc(Cl)c(F)c1)NC12CC(N3C[C@H](c4ccc(Cl)c(F)c4)OC3=O)(C1)C2 (single isomer, unassigned) [Compound 156]	250 to 1000
O=C(COc1ccc(Cl)c(F)c1)NC12CC(N3C[C@@H](c4ccc(Cl)c(F)c4)OC3=O)(C1)C2 (single isomer, unassigned) [Compound 157]	50 to 250
O=C(COc1ccc(Cl)c(F)c1)NC12CC(N3CCC(Oc4ccc(Cl)c(F)c4)C3=O)(C1)C2 (centres unmarked) [Compound 100, 2-(4-chloro-3-fluorophenoxy)-N-{3-[3-(4-chloro-3-fluorophenoxy)-2-oxopyrrolidin-1-yl]bicyclo[1.1.1]pentan-1-yl}acetamide]	50 to 250
O=C(COc1ccc(Cl)c(F)c1)NC12CC(N3CCC(Oc4ccc(C(F)(F)F)nc4)C3=O)(C1)C2 (centres unmarked) [Compound 101, 2-(4-chloro-3-fluorophenoxy)-N-[3-(2-oxo-3-{[6-(trifluoromethyl)pyridin-3-yl]oxy}pyrrolidin-1-yl)bicyclo[1.1.1]pentan-1-yl]acetamide]	250 to 1000
Cc1nn(C)c(C)c1OC1CCN(C23CC(NC(=O)COc4ccc(Cl)c(F)c4)(C2)C3)C1=O (centres unmarked) [Compound 104, 2-(4-chloro-3-fluorophenoxy)-N-(3-{2-oxo-3-[(1,3,5-trimethyl-1H-pyrazol-4-yl)oxy]pyrrolidin-1-yl}bicyclo[1.1.1]pentan-1-yl)acetamide]	> 2000
Cc1cc(OC2CCN(C34CC(NC(=O)COc5ccc(Cl)c(F)c5)(C3)C4)C2=O)no1 (centres unmarked) [Compound 105, 2-(4-chloro-3-fluorophenoxy)-N-(3-{3-[(5-methyl-1,2-oxazol-3-yl)oxy]-2-oxopyrrolidin-1-yl}bicyclo[1.1.1]pentan-1-yl)acetamide]	> 2000
Cn1cc(OC2CCN(C34CC(NC(=O)COc5ccc(Cl)c(F)c5)(C3)C4)C2=O)cn1 (centres unmarked) [Compound 106, 2-(4-chloro-3-fluorophenoxy)-N-(3-{3-[(1-methyl-H-pyrazol-4-yl)oxy]-2-oxopyrrolidin-1-yl}bicyclo[1.1.1]pentan-1-yl)acetamide]	> 2000
Cn1nc(C(F)(F)F)cc1OC1CCN(C23CC(NC(=O)COc4ccc(Cl)c(F)c4)(C2)C3)C1=O (centres unmarked) [Compound 107, 2-(4-chloro-3-fluorophenoxy)-N-[3-(3-{[1-methyl-3-(trifluoromethyl)-1H-pyrazol-5-yl]oxy}-2-oxopyrrolidin-1-yl)bicyclo[1.1.1]pentan-1-yl]acetamide]	> 2000

Molecule	EC50 [nM]
O=C(COc1ccc(Cl)c(F)c1)NC12CC(N3CCN(c4ccc(Cl)c(F)c4)C3=O)(C1)C2 [Compound 108, 2-(4-chloro-3-fluorophenoxy)-N-{3-[3-(4-chloro-3-fluorophenyl)-2-oxoimidazolidin-1-yl]bicyclo[1.1.1]pentan-1-yl}acetamide]	< 50
O=C(COc1ccc(Cl)c(F)c1)NC12CCC(N3CC(c4ccc(Cl)c(F)c4)=CC3=O)(CC1)C[C@@H]2O [Compound 109, 2-(4-chloro-3-fluorophenoxy)-N-{(2S)-4-[4-(4-chloro-3-fluorophenyl)-2-oxo-2,5-dihydro-1H-pyrrol-1-yl]-2-hydroxybicyclo[2.2.2]octan-1-yl}acetamide]	< 50
O=C(COc1ccc(Cl)c(F)c1)NC12CC(N3C(=O)OC[C@@H]3c3ccc(Cl)c(Cl)c3)(C1)C2 [Compound 110, 2-(4-chloro-3-fluorophenoxy)-N-{3-[(4S)-4-(3,4-dichlorophenyl)-2-oxo-1,3-oxazolidin-3-yl]bicyclo[1.1.1]pentan-1-yl}acetamide]	> 2000
O=C(COc1ccc(Cl)c(Cl)c1)NC12CC(N3CCN(Cc4ccc(Cl)cc4)C3=O)(C1)C2 [Compound 111, N-(3-{3-[(4-chlorophenyl)methyl]-2-oxoimidazolidin-1-yl}bicyclo[1.1.1]pentan-1-yl)-2-(3,4-dichlorophenoxy)acetamide]	> 2000
O=C(COc1ccc(Cl)c(F)c1)NC12CC(N3CCC(c4ccc(F)c(F)c4)OC3=O)(C1)C2 (centres unmarked) [Compound 112, 2-(4-chloro-3-fluorophenoxy)-N-{3-[6-(3,4-difluorophenyl)-2-oxo-1,3-oxazinan-3-yl]bicyclo[1.1.1]pentan-1-yl}acetamide]	> 2000
O=C(COc1ccc(Cl)c(F)c1)NC12CC(C3=NC(c4ccc(Cl)cc4)CO3)(C1)C2 (centres unmarked) [Compound 113, 2-(4-chloro-3-fluorophenoxy)-N-{3-[4-(4-chlorophenyl)-4,5-dihydro-1,3-oxazol-2-yl]bicyclo[1.1.1]pentan-1-yl}acetamide]	250 to 1000
O=C(COc1ccc(Cl)c(F)c1)NC12CC(N3CCN(c4ccc(Cl)cc4)C3=O)(C1)C2 [Compound 114, 2-(4-chloro-3-fluorophenoxy)-N-{3-[3-(4-chlorophenyl)-2-oxoimidazolidin-1-yl]bicyclo[1.1.1]pentan-1-yl}acetamide]	< 50
O=C(COc1ccc(Cl)c(F)c1)NC12CC(N3CCN(c4ccccc4)C3=O)(C1)C2 [Compound 115, 2-(4-chloro-3-fluorophenoxy)-N-[3-(2-oxo-3-phenylimidazolidin-1-yl)bicyclo[1.1.1]pentan-1-yl]acetamide]	250 to 1000
O=C(COc1ccc(Cl)c(F)c1)NC12CC(N3CC(c4ccc(Cl)c(F)c4)OC3=O)(C1)C2 (centres unmarked) [Compound 116, 2-(4-chloro-3-fluorophenoxy)-N-{3-[5-(4-chloro-3-fluorophenyl)-2-oxo-1,3-oxazolidin-3-yl]bicyclo[1.1.1]pentan-1-yl}acetamide]	50 to 250
O=C(COc1ccc(F)c(Cl)c1)NC12CC(N3Cc4ccccc4C3=O)(C1)C2 [Compound 117, 2-(3-chloro-4-fluorophenoxy)-N-[3-(1-oxo-1,3-dihydro-2H-isoindol-2-yl)bicyclo[1.1.1]pentan-1-yl]acetamide]	50 to 250
O=C(CCOc1ccc(Cl)cc1)N[C@H]1CC[C@H](N2CCN(c3cnc(C(F)F)cn3)C2=O)CC1 [Compound 118, 3-(4-chlorophenoxy)-N-[(1r,4r)-4-{3-[5-(difluoromethyl)pyrazin-2-yl]-2-oxoimidazolidin-1-yl}cyclohexyl]propanamide]	> 2000
O=C(CCOc1ccc(Cl)c(F)c1)N[C@H]1CC[C@H](N2CCN(c3cnc(C(F)F)cn3)C2=O)CC1 [Compound 119, 3-(4-chloro-3-fluorophenoxy)-N-[(1r,4r)-4-{3-[5-(difluoromethyl)pyrazin-2-yl]-2-oxoimidazolidin-1-yl}cyclohexyl]propanamide]	250 to 1000
O=C(COc1ccc(Cl)c(Cl)c1)N[C@H]1CC[C@H](N2CCN(c3cnc(C(F)F)cn3)C2=O)CC1 [Compound 120, 2-(3,4-dichlorophenoxy)-N-[(1r,4r)-4-{3-[5-(difluoromethyl)pyrazin-2-yl]-2-oxoimidazolidin-1-yl}cyclohexyl]acetamide]	< 50
O=C(COc1ccc(Cl)c(F)c1)N[C@H]1CC[C@H](N2CCN(c3cnc(C(F)F)cn3)C2=O)CC1 [Compound 121, 2-(4-chloro-3-fluorophenoxy)-N-[(1r,4r)-4-{3-[5-(difluoromethyl)pyrazin-2-yl]-2-oxoimidazolidin-1-yl}cyclohexyl]acetamide]	< 50
O=C(N[C@H]1CC[C@H](N2CCN(c3cnc(C(F)F)cn3)C2=O)CC1)OCc1ccccc1 [Compound 122, benzyl [(1r,4r)-4-{3-[5-(difluoromethyl)pyrazin-2-yl]-2-oxoimidazolidin-1-yl}cyclohexyl]carbamate]	> 2000
